Results as given in patent US7847127B2, “Process for preparation of atovaquone and novel intermediates thereof” (IPCA Laboratories Limited, priority 2007, dated 2010).

Assay: Stability of the physical form on storage under ambient conditions
Assay type: physicochemical
Settings: stable = remains substantially in the same physical form for at least a month at 20° C./60% RH
Experimental: The term “stable,” as used herein, refers to the tendency to remain substantially in the same physical form for at least a month, preferably at least 6 months, more preferably at least a year, still more preferably at least 2 years, when stored under ambient conditions (20° C./60% RH) without external treatment. Substantially the same physical form in this context means that at least 50%, preferably at least 80% and more preferably at least 90% of the crystalline form remains.

Stability of the crystalline form: stable
Compound: O=C1C(O)=C([C@H]2CC[C@H](c3ccc(Cl)cc3)CC2)C(=O)c2ccccc21 [Form IPCA-ATO, trans-2-[4-(4-chlorophenyl)cyclohexyl]-3-hydroxy-1,4-naphthoquinone]
